Measurements from patent US8765459B2, “Apparatus and methods for manipulation and optimization of biological systems” (The Regents of the University of California, priority 2004, dated 2014).

B1: IL-1α: cytokine used as stimulus of NF-κB activity (protein, UniProt P01583 113-271, looked up)
Interleukin-1 alpha: SAPFSFLSNVKYNFMRIIKYEFILNDALNQSIIRANDQYLTAAALHNLDEAVKFDMGAYKSSKDDAKITVILRISKTQLYVTAQDEDQPVLLKEMPEIPKTITGSETNLLFFWETHGTKNYFTSVAHPNLFIATKQDYWVCLAGGPPSITDFQILENQA
B2: TNFβ: cytokine used as stimulus of NF-κB activity (protein, UniProt P01374 35-205, looked up)
Lymphotoxin-alpha: LPGVGLTPSAAQTARQHPKMHLAHSTLKPAAHLIGDPSKQNSLLWRANTDRAFLQDGFSLSNNSLLVPTSGIYFVYSQVVFSGKAYSPKATSSPLYLAHEVQLFSSQYPFHVPLLSSQKMVYPGLQEPWLHSMYHGAAFQLTQGDQLSTHTDGIPHLVLSPSTVFFGAFAL

Experiments:
[1] = test system: NF-κB; assay: Gur Game closed-loop optimization of cytokine combination, NF-κB GFP reporter in microfluidic channels; type: cell-based; conditions: 293T cells with κB4-GFP reporter; 1 h stimulation, GFP read 7 h after; determined by final probability distributions of Gur Game search
Procedure: To implement the Gur Game algorithm, each cytokine was represented by an automaton with 10 discrete states (0, 0.25, 0.5, 1, 2.5, 5, 10, 25, 50, and 100 ng/ml) as shown in FIG. 6. At each iteration, a combination of cytokines at their respective states was applied to stimulate the cells for one hour. […] The GFP expression kinetics is thought to be controlled by protein folding and degradation rates, while the amount of transcription (GFP intensity) is thought to provide an indication of the NF-κB activity. The peak intensities were normalized as the reward function for Gur Game. The reward function maps the system state from 0 to 1, with high GFP intensity corresponds to values nearer 1. For each automaton, a random number from 0 to 1 is chosen and compared with the reward value. The next states of the automata were determined according to a prescribed manner (see FIG. 1). The process was repeated for each cytokine during each iteration.
(§1) Microfluidic systems have been proven to be effective for manipulating different biological objects, such as cells and molecules. In this example, the optimization experiments were conducted inside microfluidic channels to facilitate real-time monitoring and dynamic stimulation of the cells. (In FIGS. 7a, the concentrations of individual cytokines are indicated as follows: TNFα concentrations are plotted as solid squares; TNFβ concentrations are plotted as solid circles; IL-1α concentrations are plotted as solid triangles; IL-1β concentrations are plotted as inverted triangles; EFG concentrations are plotted as open squares; and BAFF concentrations are plotted as open circles.) The initial concentrations of the cytokines were 2.5 ng/ml. In order to monitor the activity of the NF-κB, a plasmid with a green fluorescent protein (GFP) reporter gene was placed in the 293T cell. The GFP expression is controlled by a promoter which consisted of a kappa enhancer element (κB4). Similar configurations have been applied in other studies where the GFP fluorescence intensity was able to reflect the cellular NF-κB activity. In addition, computational analysis was performed to correlate the relationship between the expression level of GPF and the activity of NF-κB. Numerical simulation indicated the best duration and time for cytokine stimulation and GFP intensity measurement. The GFP fluorescence intensity of each cell was recorded 7 hours after the stimulation as shown in FIG. 7B (data represent the average intensity of 40-128 cells).
The Gur Game was used to determine the cytokine concentrations in subsequent iterations to probabilistically drive the system toward a high GFP output, i.e. high NF-κB activity. FIG. 6 is a flow chart illustrating an exemplary Gur Game Algorithm, the algorithm used in this example. A detailed description of this exemplary algorithm is set forth above. The peak intensities were normalized as the reward function for this exemplary Gur Game algorithm. The reward function maps the system state from 0 to 1, with high GFP intensity corresponds to values nearer 1. For each automaton, a random number from 0 to 1 is chosen and compared with the reward value.
The next states of the automata were determined according to a prescribed manner, as illustrated in FIG. 7. The process was repeated for each cytokine during each iteration. Each cytokine as represented by an automaton. The numbers represent the concentration of the cytokines, in ng/ml. During each iteration, a random number was generated for each automaton. The numbers were compared to the reward value. If the reward value was larger than the random number, the automaton was rewarded (win). Otherwise, the automaton was penalized (lose). The automaton then decided the state in the next iteration according to the automaton design. Generally, the state moves toward center if penalized, and away the center if rewarded.
Referring to FIGS. 8aand 8b, initially, the system rejected several cytokine combinations with seemingly high outputs. […]

[2] = test system: NF-κB; assay: Sensitivity analysis of individual cytokines in the potent combination, NF-κB GFP reporter, 96-well plates; type: cell-based; conditions: 293T cells; for decrease in fluorescence intensity on elimination of the cytokine from the cytokine combination / effect on NF-κB activity when varied within the potent cytokine combination: 96-well plates, other cytokines held constant, 1 h stimulation, fluorescence 7 h after
Procedure: as §1
Experiments were conducted in 96-well plates. The cells were stimulated with the appropriate concentration of cytokines for one hour and washed with fresh media.

Molecule | concentration in the most potent cytokine combination for activating NF-κB [1] | decrease in fluorescence intensity on elimination of the cytokine from the cytokine combination [2] | effect on NF-κB activity when varied within the potent cytokine combination [2] | effect on NF-κB activity alone, without the potent cytokine combination [2]
IL-1β: cytokine used as stimulus of NF-κB activity | 25 ng/mL | ~30% | not sensitive to their concentrations in the range of 25-50 ng/ml | –
epidermal growth factor [EGF] | 2.5 ng/mL | – | decreased the NF-κB activity with increasing dose concentration | did not show a strong effect
TNFα | 25 ng/mL | ~50% | most sensitive in the combination | –
BAFF: cytokine tested in the combination for NF-κB activity | 2.5 ng/mL | – | minimal effect | minimal effect
B1 | 50 ng/mL | ~30% | not sensitive to their concentrations in the range of 25-50 ng/ml | –
B2 | 50 ng/mL | ~30% | – | –
